Legend:
Assay in all cases: relative viability (nuclei count vs DMSO), 5 days (fraction); higher = more cells survive
[1] = compound: C1/C(=C\C2=CC=CS2)/C(=O)/C(=C/C3=CC=CS3)/C1 + COc1cccc2cc(-c3nc([C@H]4CC[C@H](C(=O)O)CC4)n4ncnc(N)c34)[nH]c12 [OSI-027] (partner 0.5 µM)
Procedure, shortened: (§1)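 After 5 days of treatment, lung cancer cells in 1536-well plates were fixed and stained in a single step (final 0.05% Triton X-100, 1% formaldehyde, 1 ug/ml Hoechst) and their nuclei counted on 4× images. Treatment had been applied by pin tool the day after seeding as one drug alone or as a fixed anchor-drug dose with five library-drug doses (not always all listed) in √10 steps. Relative viability is the nuclei count of treated wells divided by that of vehicle wells, and values are medians of duplicate plates.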

[2] = compound: C1/C(=C\C2=CC=CS2)/C(=O)/C(=C/C3=CC=CS3)/C1 + Cc1nc(Nc2ncc(C(=O)Nc3c(C)cccc3Cl)s2)cc(N2CCN(CCO)CC2)n1 [Dasatinib] (partner 0.075 µM)
Procedure, shortened: as §1

[3] = compound: C1=CC(=CC=C1C2=CC(=C(S2)NC(=O)N)C(=O)N)F [TPCA-1] + CC(=O)Nc1cccc(-n2c(=O)n(C3CC3)c(=O)c3c(Nc4ccc(I)cc4F)n(C)c(=O)c(C)c32)c1 [Trametinib] (partner 0.02 µM)
Procedure, shortened: as §1

[4] = compound: C1=CC(=CC=C1C2=CC(=C(S2)NC(=O)N)C(=O)N)F [TPCA-1] + N=C(N)NC(=N)NCCc1ccccc1 [Phenformin] (partner 250 µM)
Procedure, shortened: as §1

Cell Line	relative viability ([1]; first compound 0.2 µM)	relative viability ([1]; first compound 0.6325 µM)	relative viability ([1]; first compound 2 µM)	relative viability ([1]; first compound 6.325 µM)	relative viability ([1]; first compound 20 µM)	relative viability ([2]; first compound 0.2 µM)	relative viability ([2]; first compound 0.6325 µM)	relative viability ([2]; first compound 2 µM)	relative viability ([2]; first compound 6.325 µM)	relative viability ([2]; first compound 20 µM)	relative viability ([3]; first compound 0.04 µM)	relative viability ([3]; first compound 0.1265 µM)	relative viability ([3]; first compound 0.4 µM)	relative viability ([3]; first compound 1.265 µM)	relative viability ([3]; first compound 4 µM)	relative viability ([4]; first compound 0.04 µM)	relative viability ([4]; first compound 0.1265 µM)	relative viability ([4]; first compound 0.4 µM)	relative viability ([4]; first compound 1.265 µM)	relative viability ([4]; first compound 4 µM)
NCI-H1755	0.787	0.709	0.79	0.683	0.759	0.393	0.462	0.445	0.366	0.375	0.846	0.716	0.72	0.714	0.591	0.665	0.553	0.6	0.503	0.427
NCI-H23	0.689	0.683	0.717	0.572	0.579	0.742	0.832	1.07	0.804	0.692	0.535	0.377	0.362	0.382	0.358	0.813	0.764	0.759	0.681	0.353
201T	0.691	0.753	0.82	0.662	0.69	0.633	0.523	0.529	0.493	0.612	0.717	0.729	0.691	0.733	0.751	0.484	0.454	0.425	0.378	0.426
NCI-H1734	0.584	0.668	0.741	0.519	0.593	0.458	0.49	0.498	0.458	0.497	0.754	0.598	0.7	0.644	0.628	0.42	0.363	0.42	0.391	0.287
NCI-H520	0.265	0.269	0.295	0.306	0.244	0.218	0.212	0.165	0.241	0.213	0.773	0.69	0.75	0.674	0.278	0.872	0.473	0.844	0.579	0.177
NCI-H1650	0.727	0.713	0.743	0.544	0.733	0.313	0.3	0.341	0.306	0.316	0.662	0.545	0.602	0.565	0.655	0.452		0.487	0.469	0.386
NCI-H1355	0.481	0.42	0.412	0.335	0.424	0.772	0.701	0.712	0.598	0.682	0.494	0.384	0.406	0.381	0.41	0.515	0.415	0.47	0.393	0.305
NCI-H1915	0.636	0.632	0.657	0.249	0.681	0.337	0.335	0.328	0.202	0.321	0.343	0.272	0.286	0.279	0.263	0.403	0.362	0.385	0.321	0.289

— the supplement of paper PMC10307832
